Test results published in publication PMC12336439 (Archiv Der Pharmazie, 2025).
Several values for one entry are separate records, joined by “and”; a condition that tells them apart may be missing. Identical values can stand only once. Like-named read-outs stand apart in the source and are kept apart here. Marks after values point to notes of the source that are not given here.

What was measured:
USP7asoc = target: T1, USP7asoc (Homo sapiens, UniProt Q93009, C300S/C315S/C334S/C478S/C488S/C510S); test: Intact protein MS (UHPLC-ESI-MS), covalent modification of USP7asoc; assay type: binding; conditions: 24 h incubation at 20°C, protein-to-compound ratio 1:31.25
T1 construct: (208‐560, C300/315/334/448/478/510S); made in house
T1 sequence (Q93009 with tags, fused parts or gaps C300S/C315S/C334S/C478S/C488S/C510S): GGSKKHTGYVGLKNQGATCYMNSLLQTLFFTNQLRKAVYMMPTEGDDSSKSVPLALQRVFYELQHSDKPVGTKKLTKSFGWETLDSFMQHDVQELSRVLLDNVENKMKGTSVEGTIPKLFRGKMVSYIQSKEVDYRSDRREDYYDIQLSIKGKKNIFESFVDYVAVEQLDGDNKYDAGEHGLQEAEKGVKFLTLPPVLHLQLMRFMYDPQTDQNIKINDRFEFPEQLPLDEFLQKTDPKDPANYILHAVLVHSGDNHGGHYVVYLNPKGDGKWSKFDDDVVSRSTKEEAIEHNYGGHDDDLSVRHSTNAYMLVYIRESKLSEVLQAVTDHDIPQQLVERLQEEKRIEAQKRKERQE
Procedure: The DSF results described above were validated by UHPLC‐ESI‐MS to verify possible covalent binding through a corresponding mass shift. Intact protein MS is an important screening method in irreversible‐covalent hit identification and is especially suitable for covalent fragment‐based drug discovery (FBDD). It allows for the identification of covalent binders by detecting covalent protein‐compound adducts, thus making use of the stability of the covalent bond. USP7 was prepared in Tris buffer (25 mM Tris pH 8.0, 150 mM NaCl, 5 mM TCEP) with a protein‐to‐compound ratio of 1:31.25 and 5% (v/v) DMSO. The protein‐compound mixtures were all incubated at 20°C for 24 h on a rotating shaker. The analysis of intact protein mass was carried out using UHPLC‐ESI‐MS measurements, with data acquisition and data analysis as previously described.

[1] = target: T2, USP7cd (USP7 catalytic domain) (Homo sapiens, UniProt Q93009); test: Ub-AMC enzyme activity assay, IC50 determination; assay type: biochemical; conditions: 10 nM USP7cd, 500 nM Ub-AMC, 24 h pre-incubation at 20°C
T2 construct: USP7 catalytic domain (USP7CD) (208‐560); made in house
T2 sequence (Q93009 with tags, fused parts or gaps): as the sequence (Q93009 with tags, fused parts or gaps C300S/C315S/C334S/C478S/C488S/C510S) above, with S96C, S111C, S130C, S274C, S284C, S306C counted along it
Procedure: Therefore, USP7 was incubated for 24 h with ten different compound concentrations, and IC50 values were then obtained with a fluorescent DUB substrate (Ub‐AMC) (Figure 9A–F). The pre‐incubation times were chosen to account for the slow covalent binding kinetics observed in the previous experiments.
The cleavage activity of USP7cd in the presence or absence of inhibitors was measured using Ubiquitin‐Aminomethylcoumarin (Ub‐AMC) (Enzo Life Sciences GmbH, Lörrach, Germany) as a fluorogenic substrate. The fluorescence was monitored using the CLARIOstar plate reader (BMG Labtech GmbH, Ortenberg, Germany) at 25°C at 360 nm excitation and 460 nm emission wavelengths. […] Each measurement was performed at least twice in duplicate. […] Ub‐AMC was added to a final concentration of 500 nM, and the fluorescence was measured after 1 h. The normalized dose‐response semi‐logarithmic curves were fitted using OriginPro2021 and the four‐parameter logistic function.
Different concentrations of compounds were pre-incubated with USP7 for 24 h at 20 °C in a rotating shaker in 25 mM Tris pH 8.0, 150mM NaCl, 5 mM TCEP supplemented with 0.2 mg/mL bovine serum albumin (BSA). Fluorescence was measured after 1 h of the addition of Ub-AMC. The dose response semi-logarithmic curves were fitted using OriginPro2021 and the four-parameter logistic function.

USP7 = target: T3, USP7 (Homo sapiens, UniProt Q93009); test: Intact protein MS (UHPLC-ESI-MS), covalent modification of USP7; assay type: binding; conditions: 24 h incubation at 20°C, protein-to-compound ratio 1:31.25
T3 construct: USP7 catalytic domain (USP7CD) (208‐560); made in house
T3 sequence (Q93009 with tags, fused parts or gaps): as the sequence (Q93009 with tags, fused parts or gaps C300S/C315S/C334S/C478S/C488S/C510S) above, with S96C, S111C, S130C, S274C, S284C, S306C counted along it
Procedure: The DSF results described above were validated by UHPLC‐ESI‐MS to verify possible covalent binding through a corresponding mass shift. Intact protein MS is an important screening method in irreversible‐covalent hit identification and is especially suitable for covalent fragment‐based drug discovery (FBDD). It allows for the identification of covalent binders by detecting covalent protein‐compound adducts, thus making use of the stability of the covalent bond.
USP7 was prepared in Tris buffer (25 mM Tris pH 8.0, 150 mM NaCl, 5 mM TCEP) with a protein‐to‐compound ratio of 1:31.25 and 5% (v/v) DMSO. The protein‐compound mixtures were all incubated at 20°C for 24 h on a rotating shaker. The analysis of intact protein mass was carried out using UHPLC‐ESI‐MS measurements, with data acquisition and data analysis as previously described.

[2] = target: T4, USP7asoc (active site only cysteine) (Homo sapiens, UniProt Q93009, C300S/C315S/C334S/C478S/C488S/C510S); test: Differential scanning fluorimetry (DSF), melting temperature shift of USP7asoc mutant; assay type: binding; conditions: for ∆T m ± SD USP7asoc: 8 µM protein, 250 µM compound (1:31.25)
T4 construct: (208‐560, C300/315/334/448/478/510S); made in house
T4 sequence (Q93009 with tags, fused parts or gaps C300S/C315S/C334S/C478S/C488S/C510S): as the sequence (Q93009 with tags, fused parts or gaps C300S/C315S/C334S/C478S/C488S/C510S) above
Procedure: USP7asoc only retains the catalytic Cys223 while all the other six cysteines are mutated to serine. DSF was selected for initial assessment since it is an efficient and rapid primary screening method readily available to our lab. […] An important consideration when assessing covalent inhibitors is the time dependence of covalent target occupancy and thus potency, which is determined by the reaction kinetics of the covalent binding event. To allow for drawing conclusions on compounds with slower reaction kinetics, incubation times of 30 min, 4 h, and 24 h at 20°C were chosen for the DSF screen with USP7 (Table 1 and Figures 2 and 3). The threshold at which compounds were considered (de‐)stabilizers was defined at 0.5°C. In parallel, the intrinsic reactivity of a set of representative compounds was evaluated in a glutathione reactivity assay. […] The expression and purification of USP7 catalytic domain (USP7CD) (208‐560) and USP7asoc (active site only cysteine) by using a pET24a(+)_HLT_USP7 construct were performed as previously described. […] For the USP7asoc, six of the seven cysteines are mutated to serines (208‐560, C300/315/334/448/478/510S). All utilized protein sequences are depicted in Supporting Information S2: Table S.3.1. The melting temperatures of USP7 and USP7asoc in the presence or absence of fragments were determined by DSF on a Qiagen Rotor‐Q Model‐5‐Plex HRM real‐time PCR instrument (Qiagen, Hilden, Germany). SYPRO Orange (Life Technologies Corporation, Eugene, OR, USA) was used as a fluorescent dye at a final concentration of 5x. The protein concentration was 8 µM, and the final compound concentration was 250 µM, corresponding to a protein‐to‐compound ratio of 1:31.25. All compounds were dissolved in dimethyl sulfoxide (DMSO) and the proteins in Tris buffer (25 mM Tris pH 8.0, 150 mM NaCl, 5 mM TCEP, 5% (v/v) DMSO). All measurements were performed after 30 min, 4 h, and 24 h of incubation and at least in triplicate. DSF experiments were carried out with a constant heating rate of 270°C/h. The temperature was ramped from 28°C to 60°C–70°C with excitation and emission filters set at 470 nm and 610 nm, respectively. The melting temperatures (T m) of USP7 and USP7asoc were determined from the maxima of the first derivatives of the melting curves in OriginPro2020 (OriginLab, Northampton, MA, USA). The ∆T m was calculated by subtraction of the T m of the protein sample with pure DMSO from the T m of the protein sample mixed with compound. Error propagation was used to average multiple runs for a compound. A compound was considered to be a hit if the shift in the ∆T m was at least 0.50°C [55].

[3] = supplement table, read-out: Biological Activity (IC50)

Row | SMILES | protein species in deconvoluted mass spectrum of USP7asoc (USP7asoc) | IC50 ([1]; read-out: IC50 USP7cd) | IC50 [1, 3] | protein species in deconvoluted mass spectrum of USP7 (USP7) | ∆T m ± SD USP7asoc ([2]; 30 min incubation at 20°C) | ∆T m ± SD USP7asoc ([2]; 4 h incubation at 20°C) | ∆T m ± SD USP7asoc ([2]; 24 h incubation at 20°C) | ∆T m of small shoulder (second smaller peak) of the melting curve of USP7asoc ([2]; 24 h incubation, 250 µM compound)
1 | Cn1ccc(-c2cccc3cnc(Nc4nc(F)ccc4[N+](=O)[O-])cc23)c1 [7b, N‐(6‐Fluoro‐3‐nitropyridin‐2‐yl)‐5‐(1‐methyl‐1H‐pyrrol‐3‐yl)isoquinolin‐3‐amine] | unmodified protein species as a main peak for both USP7 and USP7asoc | 56.6 µM and 57 µM | 56.6 ± 6.11 µM | unmodified protein species as a main peak for both USP7 and USP7asoc | 0.05 ± 0.09 °C | 0.45 ± 0.12 °C | 0.38 ± 0.06 °C | –
2 | CCn1cc(-c2cccc3cnc(Nc4nc(F)ccc4[N+](=O)[O-])cc23)cn1 [7c, 5‐(1‐Ethyl‐1H‐pyrazol‐4‐yl)‐N‐(6‐fluoro‐3‐nitropyridin‐2‐yl)isoquinolin‐3‐amine] | mainly showed the attachment of a single molecule to USP7 and USP7asoc | 36.2 µM and 36 µM | 36.2 ± 2.21 µM | mainly showed the attachment of a single molecule to USP7 and USP7asoc | –0.25 ± 0.23 °C | 0.20 ± 0.09 °C | 0.23 ± 0.08 ^b °C | –
3 | CCCn1cc(-c2cccc3cnc(Nc4nc(F)ccc4[N+](=O)[O-])cc23)cn1 [7d, N‐(6‐Fluoro‐3‐nitropyridin‐2‐yl)‐5‐(1‐propyl‐1H‐pyrazol‐4‐yl)isoquinolin‐3‐amine] | single modified protein as the main signal | 26.8 µM and 27 µM | 26.8 ± 7.54 µM | single modified protein as the main signal | 0.00 ± 0 °C | 0.03 ± 0.08 °C | 0.35 ± 0.06 °C | –
4 | O=[N+]([O-])c1ccc(F)nc1Nc1cc2c(-c3cnn(C4CC4)c3)cccc2cn1 [7e, 5‐(1‐Cyclopropyl‐1H‐pyrazol‐4‐yl)‐N‐(6‐fluoro‐3‐nitropyridin‐2‐yl)isoquinolin‐3‐amine] | mono‐arylated USP7 and USP7asoc species as main peaks | 48.4 µM and 48 µM | 48.3 ± 5.68 µM | mono‐arylated USP7 and USP7asoc species as main peaks | –0.35 ± 0.09 °C | –0.13 ± 0.04 °C | 0.40 ± 0.09 ^b °C | about –5 °C
5 | O=[N+]([O-])c1ccc(F)nc1Nc1cc2c(-c3ccc(-c4ccncc4)cc3)cccc2cn1 [7i, N‐(6‐Fluoro‐3‐nitropyridin‐2‐yl)‐5‐[4‐(pyridin‐4‐yl)phenyl]isoquinolin‐3‐amine] | unmodified USP7 and USP7asoc as the main peak | > 1000 µM | – | unmodified USP7 and USP7asoc as the main peak | –0.30 ± 0.12 °C | –0.15 ± 0 °C | 0.05 ± 0.17 °C | –
